Measured values from US20240307415A1, “STEROID COMPOUND, AND PHARMACEUTICAL COMPOSITION THEREOF AND USE THEREOF” (JIANGSU SIMCERE PHARMACEUTICAL CO., LTD., priority 2021, published 2024).

Tests used:
[1] = Plasma protein binding rate, mouse plasma (equilibrium dialysis); format: in vitro ADME; details: CD-1, mouse, pH 7.4, equilibrium dialysis 6 h, 37° C.
Method: The protein binding rates of the compound of the present invention in plasma of 5 species (humans, monkeys, dogs, rats, and mice) were determined using the following method.
• 1. Human plasma (BioIVT), monkey plasma (ADME-plasma-pooled monkey-05212020), beagle dog plasma (BioIVT), SD rat plasma (BioIVT), and CD-1 mouse plasma (BioIVT) • 2. Na2HPO4 (Sigma S5136-500G) • 3. NaH2PO4 (Sigma S3139-500G) • 4. NaCl (Sigma S5886-IKG) • 5. 96-well equilibrium dialysis plate (HTDialysis LLC, Gales Ferry, CT, HTD96B) and equilibrium dialysis membrane (MWCO 12-14K, 1101) • 6. Positive control compound warfarin • 7. ABI QTrap 5500 liquid chromatography-mass spectrometry system
• 1. […] Preparation of a dialysis membrane: the dialysis membrane was soaked in ultrapure water for 60 min to separate the membrane into two pieces, then soaked with 20% ethanol for 20 min, and finally soaked with dialysis buffer for 20 min. • 3. Preparation of plasma: the frozen plasma was quickly thawed at room temperature and then centrifuged at 3,220 g at 4° C. for 10 min to remove clots, and the supernatant was collected to a new centrifuge tube. The pH of the plasma was measured and recorded. The plasma with pH 7-8 was used. • 4. […]
The peak areas of the compound on the buffer side and the plasma side were measured. The plasma protein binding rate of the compound was calculated by the following formula: […]

[2] = Membrane permeability and transport properties (Caco-2); format: in vitro ADME; details: human, pH 7.4, Caco-2, 10 μM
Source text: • 1. Caco-2 cells (ATCC) • 2. HEPES (Solarbio 804D049), penicillin/streptomycin (Solarbio 20200109), and PBS (Solarbio 20200620) • 3. Fetal Bovine Serum (FBS) (Sigma WXBD0055V), lucifer yellow (Sigma MKCJ3738), and NaHCO3 (Sigma SLBZ4647) • 4. Hank's balanced salt solution (HBSS) (Gibco 2085528), non-essential amino acid (NEAA) (Gibco 2211548), and Trypsin/EDTA (Gibco 2120732) • 5. High glucose DMEM (Corning 20319014) • 6. HTS Transwell-96 Well Permeable (Corning, 3391) • 7. Resistance detector (Millipore, Millicell® ERS-2) • 8. Cellometer® Vision (Nexcelom Bioscience) • 9. Infinite 200 PRO microplate reader (Tecan, Infinite M200PRO) • 10. Positive control compound metoprolol (Sinopharm 100084-201403), erythromycin (MCE 84550), and cimetidine (Sinopharm 100158-201406) • 11. ABI QTrap 5500 liquid chromatography-mass spectrometry system
• 1. […] Evaluation of integrity of monolayer cell membrane • 1) The cells fused and differentiated after 14 days of culture and were ready for a transport experiment. • 2) The resistance of the monolayer membrane was measured using a resistance detector. The resistance of each well was recorded. • 3) After measurement, the Transwell culture plate was re-incubated. • 4) The TEER value was calculated: […]

In the case of `C[C@]12C=CC(=O)C=C1CC[C@@H]1[C@@H]2[C@@H](O)C[C@@]2(C)[C@H]1C[C@H]1O[C@@H](c3ccc(Cc4cc(N)c5c(c4)CCO5)cc3)O[C@]12C(=O)CO` [Compound 009, (6aR,6bS,7S,8aS,8bS,10R,11aR,12aS,12bS)-10-(4-((7-amino-2,3-dihydrobenzofuran-5-yl)methyl)phenyl)-7-hydroxy-8b-(2-hydroxyacetyl)-6a,8a-dimethyl-6a,6b,7,8,8a,8b,11a,12,12a,12b-decahydro-1H-naphtho[2′,1′:4,5]indeno[1,2-d][1,3]dioxolan-4(2H)-one], the fraction unbound at 6 h, 1 μM [1] is reported as 0.002, the Papp A→B at 2 h, 10 μM ([2]; apical to basal) is reported as 0.73 ×10⁻⁶ cm/s and the Papp B→A at 2 h, 10 μM ([2]; basal to apical) is reported as 3.86 ×10⁻⁶ cm/s.
